Data as given in patent US7157487B2, “Vla-4 inhibitors” (Daiichi Pharmaceutical Co., Ltd., priority 2000, dated 2007).
pKi: −log10 of the molar value.

What was measured:
[1] = target: T1, integrins haα4 and β1 (VLA-4) expressed on CHO cells (Homo sapiens, UniProt P05556+P13612); test: In vitro Evaluation Test (1): binding of Eu3+-hVCAM-1 D1D7-IgG to CHO cells expressing integrins α4 and β1; settings: inhibition of Eu3+-hVCAM-1 D1D7-IgG binding to CHO cells expressing α4β1; Ki calculated from IC50
T1 construct: expressed in transfected cells; host or cells: CHO cells
In short: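 CHO cells transduced with human α4 and β1 were grown for 2 days. They were incubated 1 h at room temperature with Eu3+-hVCAM-1 D1D7-IgG (diluted to 2 nM before addition) and compound, with or without 6% HSA, in HEPES pH 7.5 containing Ca2+, Mg2+ and 4 mM Mn2+. Time-resolved fluorescence gave IC50; Ki used a Scatchard-derived Kd (0.06–20 nM).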

[2] = Pharmacokinetics and oral bioavailability in rats; type: in vivo; settings: Rat, oral, plasma; for AUC: LC/MS/MS; for bioavailability: read-out: F (%) oral bioavailability; for clearance: read-out: CLtot (mL/min/kg) apparent plasma clearance
Text: (§1) The pharmacokinetic parameter of the test compound orally administered to rats or dogs are described below.

[3] = Pharmacokinetics and oral bioavailability in dogs; type: in vivo; settings: 2 /kg, Dog, oral, Dose/kg 2.0, plasma; for AUC: LC/MS/MS; for bioavailability: read-out: F (%) oral bioavailability; for clearance: read-out: CLtot (mL/min/kg) apparent plasma clearance
Text: as §1

[4] = target: VLA-4 (Homo sapiens, UniProt P05556+P13612); settings: in vitro, literature report; cited from earlier work
[5] = test system: cardiac transplantation of rabbits; settings: literature report; cited from earlier work
[6] = test system: VLA-4 expressed cells; settings: literature report; cited from earlier work
[7] = Evaluation of oral bioavailability by mouse bioassay; type: in vivo; settings: 10 mg/kg oral, female Balb/C mice, serum 15 minutes after administration, read-out: Blood level
In short: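 Female Balb/C mice aged 7–9 weeks received 10 mg/kg compound orally as a 1 mg/ml suspension or solution. Compound level was estimated either from a calibration curve using VCAM-1/VLA-4 inhibitory activity or by LC/MS/MS.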

T1 sequence (P13612 34-1032): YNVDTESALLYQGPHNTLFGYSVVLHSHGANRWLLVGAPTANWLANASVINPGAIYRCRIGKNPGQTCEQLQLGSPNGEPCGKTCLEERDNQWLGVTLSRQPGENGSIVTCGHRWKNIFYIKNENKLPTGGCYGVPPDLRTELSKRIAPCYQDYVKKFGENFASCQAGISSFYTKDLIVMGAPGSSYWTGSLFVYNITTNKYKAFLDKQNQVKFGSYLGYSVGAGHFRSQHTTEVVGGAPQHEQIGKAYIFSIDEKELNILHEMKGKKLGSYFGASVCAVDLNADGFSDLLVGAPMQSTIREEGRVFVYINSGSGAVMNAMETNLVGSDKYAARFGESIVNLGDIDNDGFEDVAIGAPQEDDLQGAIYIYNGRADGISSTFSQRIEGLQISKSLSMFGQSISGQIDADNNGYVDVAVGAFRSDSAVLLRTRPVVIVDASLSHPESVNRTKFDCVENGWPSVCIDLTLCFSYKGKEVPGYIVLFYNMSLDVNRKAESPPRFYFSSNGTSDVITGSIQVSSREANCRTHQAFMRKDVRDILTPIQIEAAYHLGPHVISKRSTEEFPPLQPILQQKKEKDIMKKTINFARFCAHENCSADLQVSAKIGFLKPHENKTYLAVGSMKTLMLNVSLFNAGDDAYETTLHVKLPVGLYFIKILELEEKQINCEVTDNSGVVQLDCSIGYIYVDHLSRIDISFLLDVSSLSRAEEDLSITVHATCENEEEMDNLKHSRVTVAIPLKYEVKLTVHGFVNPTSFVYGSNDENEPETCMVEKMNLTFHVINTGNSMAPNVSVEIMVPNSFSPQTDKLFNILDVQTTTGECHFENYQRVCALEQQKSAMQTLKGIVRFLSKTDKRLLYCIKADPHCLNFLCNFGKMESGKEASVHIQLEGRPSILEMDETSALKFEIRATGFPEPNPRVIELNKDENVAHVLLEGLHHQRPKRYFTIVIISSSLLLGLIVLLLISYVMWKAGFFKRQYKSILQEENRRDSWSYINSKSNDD
T1 sequence (P05556 21-798): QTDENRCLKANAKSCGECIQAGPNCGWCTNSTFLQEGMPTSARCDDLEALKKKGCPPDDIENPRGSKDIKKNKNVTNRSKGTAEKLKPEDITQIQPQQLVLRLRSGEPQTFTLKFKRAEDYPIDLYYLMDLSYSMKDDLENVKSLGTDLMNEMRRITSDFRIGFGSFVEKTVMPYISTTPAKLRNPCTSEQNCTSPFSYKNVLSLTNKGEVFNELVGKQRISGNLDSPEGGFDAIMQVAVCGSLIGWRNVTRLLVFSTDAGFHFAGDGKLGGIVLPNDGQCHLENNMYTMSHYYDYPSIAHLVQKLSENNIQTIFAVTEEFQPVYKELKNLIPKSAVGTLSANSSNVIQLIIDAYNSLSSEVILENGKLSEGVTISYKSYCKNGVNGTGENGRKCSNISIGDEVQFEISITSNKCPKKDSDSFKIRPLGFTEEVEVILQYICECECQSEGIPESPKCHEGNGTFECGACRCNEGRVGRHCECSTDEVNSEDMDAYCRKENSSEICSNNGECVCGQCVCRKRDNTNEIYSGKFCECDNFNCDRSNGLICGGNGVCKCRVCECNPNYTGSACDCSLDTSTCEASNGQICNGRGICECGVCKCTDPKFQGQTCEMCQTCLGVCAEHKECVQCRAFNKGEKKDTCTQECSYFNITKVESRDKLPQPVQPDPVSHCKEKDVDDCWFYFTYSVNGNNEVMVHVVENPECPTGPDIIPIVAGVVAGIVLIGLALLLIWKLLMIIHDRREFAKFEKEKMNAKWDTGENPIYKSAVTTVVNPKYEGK
Sequence of VLA-4 (P13612 34-1032): as the sequence (P13612 34-1032) above
Sequence of VLA-4 (P05556 21-798): as the sequence (P05556 21-798) above

Cc1ccccc1Nc1nc2ccc(CC(=O)N3C[C@@H](F)C[C@H]3COC3CCC(C(=O)O)CC3)cc2o1 (single isomer, unassigned) [21 (Isomer H)]
pKi [1]: 8.60
AUC ([2]; 5 /kg, Dose/kg 5.0): 14900 ng·h/mL
bioavailability ([2]; 5 /kg, Dose/kg 5.0): 52%
clearance ([2]; 5 /kg, Dose/kg 5.0): 3.3 mL/min/kg
AUC [3]: 760 ng·h/mL
bioavailability [3]: 40%
clearance [3]: 17.9 mL/min/kg

phenylacetic acid-Leu-Asp-Phe-d-Pro-amide [synthetic CS-1 tetrapeptide]
inhibition of leukocyte adhesion mediated by VLA-4 [4]: in vitro inhibition
advance of coronary arterial diseases [5]: amelioration of advance of coronary arterial diseases

CO[C@H]1C[C@@H](COC2CCC(C(=O)O)CC2)N(C(=O)Cc2ccc3nc(Nc4ccccc4C)oc3c2)C1 (single isomer, unassigned) [20 (Isomer A)]
AUC ([2]; 2 /kg, Dose/kg 2.0): 152 ng·h/mL
bioavailability ([2]; 2 /kg, Dose/kg 2.0): 35%
clearance ([2]; 2 /kg, Dose/kg 2.0): 73 mL/min/kg
AUC [3]: 776 ng·h/mL
bioavailability [3]: 44%
clearance [3]: 19.1 mL/min/kg

CQIDSPC
inhibition of adhesion of VLA-4 expressed cells to purified VCAM-1 [6]: succeeded in inhibiting adhesion

Cn1cc(-c2nc3ccc(CC(=O)N4C[C@@H](F)C[C@H]4CO[C@H]4CC[C@H](C(=O)O)CC4)c(F)c3o2)c2ccccc21 [Example 98, trans-4-(1-((7-Fluoro-2-(1-methyl-3-indolyl)-6-benzoxazolyl)acetyl)-(4S)-fluoro-(2S)-pyrrolidinylmethoxy)cyclohexanecarboxylic acid]
pKi [1]: 8.44
concentration at 15 min [7]: 2210 ng/mL

O=C(Nc1ccc(CC(=O)N2C[C@@H](F)C[C@H]2CO[C@H]2CC[C@H](C(=O)O)CC2)cc1Br)c1nccc2ccccc12 [Example 79, trans-4-(1-((3-Bromo-4-((1-isoquinolinylcarbonyl)amino)phenyl)acetyl)-(4S)-fluoro-(2S)-pyrrolidinylmethoxy)cyclohexanecarboxylic acid]
pKi [1]: 8.35
concentration at 15 min [7]: 9370 ng/mL

O=C(Nc1ccc(CC(=O)N2C[C@@H](F)C[C@H]2CO[C@H]2CC[C@H](C(=O)O)CC2)cc1Cl)c1nsc2ccccc12 [Example 83, trans-4-(1-(3-Chloro-4-((3-benzo(d)isothiazolylcarbonyl)amino)phenylacetyl)-(4S)-fluoro-(2S)-pyrrolidinylmethoxy)cyclohexanecarboxylic acid]
pKi [1]: 8.72
concentration at 15 min [7]: 1540 ng/mL

Cn1cc(C(=O)Nc2ccc(CC(=O)N3C[C@@H](F)C[C@H]3COC3CCC(C(=O)O)CC3)cc2Cl)c2ccccc21 (stereo partly drawn) [Example 39, 4-(1-(3-Chloro-4-(1-methyl-3-indolylcarbonylamino)phenylacetyl)-(4S)-fluoro-(2S)-pyrrolidinylmethoxy)cyclohexanecarboxylic acid]
pKi [1]: 8.68
concentration at 15 min [7]: 5160 ng/mL
